30 compounds from patent US8026243B2, “[4,5′]Bipyrimidinyl-6,4′-diamine derivatives as protein kinase inhibitors” (Novartis AG, priority 2006, dated 2011) can be followed below.

Structures are written as SMILES.

The target in one assay is T1, Ba/F3-TEL-FGFR3 cells (Homo sapiens, UniProt P22607).
T1 construct: fused on or other part: The N-terminal oligomerising part of TEL (ETV6) is fused before the intracellular kinase part of FGFR3; P41212 (Transcription factor ETV6)
T1 sequence (P22607 whole entry, change not shown, the tested form may be a part): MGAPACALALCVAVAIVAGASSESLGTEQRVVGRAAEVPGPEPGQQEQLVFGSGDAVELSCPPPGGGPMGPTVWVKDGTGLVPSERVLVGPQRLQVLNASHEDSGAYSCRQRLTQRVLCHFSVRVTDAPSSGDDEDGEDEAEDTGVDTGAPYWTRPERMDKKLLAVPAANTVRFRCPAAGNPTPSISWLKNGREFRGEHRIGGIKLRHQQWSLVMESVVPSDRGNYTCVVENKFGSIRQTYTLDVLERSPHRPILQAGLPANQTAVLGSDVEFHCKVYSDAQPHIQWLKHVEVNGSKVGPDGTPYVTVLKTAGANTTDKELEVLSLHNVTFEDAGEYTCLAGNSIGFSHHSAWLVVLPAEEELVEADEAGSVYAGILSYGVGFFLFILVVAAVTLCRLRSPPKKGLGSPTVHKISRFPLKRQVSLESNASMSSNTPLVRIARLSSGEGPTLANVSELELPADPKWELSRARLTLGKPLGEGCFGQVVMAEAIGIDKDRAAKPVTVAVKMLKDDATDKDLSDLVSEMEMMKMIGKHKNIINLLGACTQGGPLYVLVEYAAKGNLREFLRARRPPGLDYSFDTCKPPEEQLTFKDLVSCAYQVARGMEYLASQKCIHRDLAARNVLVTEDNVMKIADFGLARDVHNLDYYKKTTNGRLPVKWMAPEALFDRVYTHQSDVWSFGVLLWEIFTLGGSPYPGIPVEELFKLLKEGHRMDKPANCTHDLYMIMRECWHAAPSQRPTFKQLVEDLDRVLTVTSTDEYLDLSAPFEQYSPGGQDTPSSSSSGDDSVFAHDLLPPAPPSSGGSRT
Briefly: FGFR3 cellular assay: proliferation of transformed Ba/F3-TEL-FGFR3 cells (AlamarBlue). It counts as cell-based. The following applies: 48 hours incubation, class symbols. The method, then: Compounds of the invention are tested for their ability to inhibit transformed Ba/F3-TEL-FGFR3 cells proliferation, which is dependent on FGFR3 cellular kinase activity. Ba/F3-TEL-FGFR3 are cultured up to 800,000 cells/mL in suspension, with RPMI 1640 supplemented with 10% fetal bovine serum as the culture medium. Cells are dispensed into 384-well format plate at 5000 cell/well in […], culture medium. Compounds of the invention are dissolved and diluted in dimethylsulfoxide (DMSO). Twelve points 1:3 serial dilutions are made into DMSO to create concentrations gradient ranging typically from 10 mM to 0.05 μM. Cells are added with 50 nL of diluted compounds and incubated for 48 hours in cell culture incubator. AlamarBlue® (TREK Diagnostic Systems), which can be used to monitor the reducing environment created by proliferating cells, are added to cells at final concentration of 10%. After additional four hours of incubation in a 37° C. cell culture incubator, fluorescence signals from reduced AlamarBlue® (Excitation at 530 nm, Emission at 580 nm) are quantified on Analyst GT (Molecular Devices Corp.). IC50 values are calculated by linear regression analysis of the percentage inhibition of each compound at 12 concentrations.
On the technique in general: Resazurin is reduced to fluorescent resorufin, in cell work by metabolically active cells.
As to `CCN1CCN(c2ccc(Nc3cc(-c4cncnc4Nc4c(F)c(OC)cc(OC)c4F)ncn3)nc2)CC1` [Compound 62, N4′-(2,6-Difluoro-3,5-dimethoxy-phenyl)-N6-[5-(4-ethyl-piperazin-1-yl)-pyridin-2-yl]-[4,5′]bipyrimidinyl-6,4′-diamine], the GI50 (usually the concentration that inhibits growth by half) was < 100 nM.

For `COc1cc(Nc2ncncc2-c2cc(Nc3ccc(CN4CCN(C(=O)CO)CC4)cn3)ncn2)c(F)c(OC)c1` [Compound 90], the 50% growth inhibitory concentration (GI50) was < 100 nM. Regarding `COc1cc(OC)c(Cl)c(Nc2ncncc2-c2cc(Nc3ccc(C(C)O)cn3)ncn2)c1Cl` (stereo not drawn) [Compound 82, 1-{6-[4′-(2,6-Dichloro-3,5-dimethoxy-phenylamino)-[4,5′]bipyrimidinyl-6-ylamino]-pyridin-3-yl}-ethanol], the GI50 is < 100 nM. Still for that read-out and setting: the value for `CCN1CCN(Cc2ccc(Nc3cc(-c4cncnc4Nc4c(F)c(OC)cc(OC)c4Cl)ncn3)nc2)CC1` [Compound 45, N4′-(2-Chloro-6-fluoro-3,5-dimethoxy-phenyl)-N6-[5-(4-ethyl-piperazin-1-ylmethyl)-pyridin-2-yl]-[4,5′]bipyrimidinyl-6,4′-diamine] was < 100 nM; that for `CCN1CCN(Cc2ccc(Nc3cc(-c4cncnc4Nc4c(F)c(OC)cc(OC)c4F)ncn3)nc2)CC1` [Compound 64, N4′-(2,6-Difluoro-3,5-dimethoxy-phenyl)-N6-[5-(4-ethyl-piperazin-1-ylmethyl)-pyridin-2-yl]-[4,5′]bipyrimidinyl-6,4′-diamine] was < 100 nM; that for `Nc1cc(-c2nccnc2Nc2c(Cl)cccc2Cl)ncn1` [Compound 106, 6-(3-(2,6-dichlorophenylamino)pyrazin-2-yl)pyrimidin-4-amine] was < 100 nM. On the same count and under the same terms, the value for `COc1cc(OC)c(Cl)c(Nc2ncncc2-c2cc(Nc3cncc(CN4CCOCC4)c3)ncn2)c1Cl` [Compound 21, N4′-(2,6-Dichloro-3,5-dimethoxy-phenyl)-N6-(5-morpholin-4-ylmethyl-pyridin-3-yl)-[4,5′]bipyrimidinyl-6,4′-diamine] was 250 to 500 nM; that for `COc1cc(OC)c(Cl)c(Nc2nccnc2-c2cc(Nc3ccc(C(C)O)cn3)ncn2)c1Cl` (stereo not drawn) [Compound 102, {6-[3-(2,6-Dichloro-3,5-dimethoxy-phenylamino)-pyrazin-2-yl]-pyrimidin-4-yl}-(5-[1-hydroxyethyl]-pyridin-2-yl)-amine] was < 100 nM; that for `CCNC(=O)c1cc(OC)c(Cl)c(Nc2ncncc2-c2cc(Nc3ccc(CN4CCOCC4)cn3)ncn2)c1Cl` [Compound 24, 2,4-Dichloro-N-ethyl-5-methoxy-3-[6-(5-morpholin-4-ylmethyl-pyridin-2-ylamino)-[4,5′]bipyrimidinyl-4′-ylamino]-benzamide] was < 100 nM. Same read-out and setting: the result for `COc1cc(OC)c(Cl)c(Nc2ncncc2-c2cc(Nc3ccc(C(C)O)cn3)ncn2)c1C` (stereo not drawn) [Compound 81, 1-{6-[4′-(2-Chloro-3,5-dimethoxy-6-methyl-phenylamino)-[4,5′]bipyrimidinyl-6-ylamino]-pyridin-3-yl}-ethanol] reads < 100 nM; that for `COc1cc(OC)c(Cl)c(Nc2ncncc2-c2cc(NCCCCN(C)C)ncn2)c1Cl` [Compound 13, N4′-(2,6-Dichloro-3,5-dimethoxy-phenyl)-N6-(4-dimethylamino-butyl)-[4,5′]bipyrimidinyl-6,4′-diamine], 250 to 500 nM. On to `COc1cc(OC)c(Cl)c(Nc2ncncc2-c2cc(Nc3ccc(CN4CCCC4)cn3)ncn2)c1Cl` [Compound 2, N4′-(2,6-Dichloro-3,5-dimethoxy-phenyl)-N6-(5-pyrrolidin-1-ylmethyl-pyridin-2-yl)-[4,5′]bipyrimidinyl-6,4′-diamine], for which the GI50 is < 100 nM. Consider `CCN1CCN(c2ccc(Nc3cc(-c4cncnc4Nc4c(Cl)c(OC)cc(C(=O)NC5CC5)c4Cl)ncn3)nc2)CC1` [Compound 55, 2,4-Dichloro-N-cyclopropyl-3-{6-[5-(4-ethyl-piperazin-1-yl)-pyridin-2-ylamino]-[4,5′]bipyrimidinyl-4′-ylamino}-5-methoxy-benzamide], for which the 50% growth inhibitory concentration (GI50) was < 100 nM. As for `COc1cc(Nc2ncncc2-c2cc(Nc3ccc(CN4CCN(CCO)CC4)cn3)ncn2)c(F)c(OC)c1` [Compound 70, 2-(4-{6-[4′-(2-Fluoro-3,5-dimethoxy-phenylamino)-[4,5′]bipyrimidinyl-6-ylamino]-pyridin-3-ylmethyl}-piperazin-1-yl)-ethanol], the 50% growth inhibitory concentration (GI50) was < 100 nM. Same read-out and setting: the result for `COc1ccc(F)c(Nc2nccnc2-c2cc(Nc3cc(CN4CCOCC4)ccn3)ncn2)c1F` [Compound 105, {6-[3-(2,6-Difluoro-3-methoxy-phenylamino)-pyrazin-2-yl]-pyrimidin-4-yl}-(4-(morpholin-4-ylmethyl)-pyridin-2-yl)-amine] reads < 100 nM; that for `CCN1CCN(c2ccc(Nc3cc(-c4cncnc4Nc4c(C)c(OC)cc(OC)c4Cl)ncn3)nc2)CC1` [Compound 48, N4′-(2-Chloro-3,5-di-methoxy-6-methyl-phenyl)-N6-[5-(4-ethyl-piperazin-1-yl)-pyridin-2-yl]-[4,5′]bipyrimidinyl-6,4′-diamine], < 100 nM.

For `COc1cc(OC)c(F)c(Nc2ncncc2-c2cc(Nc3ccc(CCN4CCOCC4)cn3)ncn2)c1F` [Compound 85, N4′-(2,6-Difluoro-3,5-dimethoxy-phenyl)-N6-[5-(2-morpholin-4-yl-ethyl)-pyridin-2-yl]-[4,5′]bipyrimidinyl-6,4′-diamine], the 50% growth inhibitory concentration (GI50) was < 100 nM. On the same count and under the same terms, the result for `COc1cc(OC)c(Cl)c(Nc2ncncc2-c2cc(Nc3ccc(CN4CCN(C)CC4)cn3)ncn2)c1Cl` [Compound 3, N4′-(2,6-Dichloro-3,5-dimethoxy-phenyl)-N6-[5-(4-methyl-piperazin-1-ylmethyl)-pyridin-2-yl]-[4,5′]bipyrimidinyl-6,4′-diamine] reads < 100 nM; that for `COc1cc(OC)c(F)c(Nc2ncncc2-c2cc(Nc3ccc(CN4CCOCC4)cn3)ncn2)c1F` [Compound 63, N4′-(2,6-Difluoro-3,5-dimethoxy-phenyl)-N6-(5-morpholin-4-ylmethyl-pyridin-2-yl)-[4,5′]bipyrimidinyl-6,4′-diamine], < 100 nM.

`COc1cc(Nc2ncncc2-c2cc(Nc3ccc(CN4CCOCC4)cn3)ncn2)c(F)c(OC)c1` [Compound 68, N4′-(2-Fluoro-3,5-dimethoxy-phenyl)-N6-(5-morpholin-4-ylmethyl-pyridin-2-yl)-[4,5′]bipyrimidinyl-6,4′-diamine]: the 50% growth inhibitory concentration (GI50) is < 100 nM.

In the case of `CCN(CC)Cc1ccc(Nc2cc(-c3cncnc3Nc3c(Cl)c(OC)cc(OC)c3Cl)ncn2)nc1` [Compound 28, N4′-(2,6-Dichloro-3,5-dimethoxy-phenyl)-N6-(5-diethylamino-methyl-pyridin-2-yl)-[4,5′]bipyrimidinyl-6,4′-diamine], the 50% growth inhibitory concentration (GI50) was < 100 nM. On the same count and under the same terms, the value for `COc1cc(C(=O)NC2CC2)c(Cl)c(Nc2ncncc2-c2cc(Nc3ccc(CN4CCN(C(C)=O)CC4)cn3)ncn2)c1Cl` [Compound 67, 3-{6-[5-(4-Acetyl-piperazin-1-ylmethyl)-pyridin-2-ylamino]-[4,5′]bipyrimidinyl-4′-ylamino}-2,4-dichloro-N-cyclopropyl-5-methoxy-benzamide] was < 100 nM. Still for that read-out and setting: the result for `COc1cc(OC)c(Cl)c(Nc2nccnc2-c2cc(Nc3ccc(CN4CCN(CCO)CC4)cn3)ncn2)c1Cl` [Compound 100] reads < 100 nM; that for `COc1cc(Nc2ncncc2-c2cc(Nc3ccc(CCN4CCOCC4)cn3)ncn2)c(F)c(OC)c1` [Compound 84, N4′-(2-Fluoro-3,5-dimethoxy-phenyl)-N6-[5-(2-morpholin-4-yl-ethyl)-pyridin-2-yl]-[4,5′]bipyrimidinyl-6,4′-diamine], < 100 nM. For `COc1cc(OC)c(Cl)c(Nc2ncncc2-c2cc(Nc3ccc(CCN4CCOCC4)cn3)ncn2)c1Cl` [Compound 18, N4′-(2,6-Dichloro-3,5-dimethoxy-phenyl)-N6-[5-(2-morpholin-4-yl-ethyl)-pyridin-2-yl]-[4,5′]bipyrimidinyl-6,4′-diamine], the GI50 was < 100 nM. With `COc1cc(OC)c(Cl)c(Nc2ncncc2-c2cc(Nc3ccc(CCN4CCOCC4)cn3)ncn2)c1C` [Compound 86, N4′-(2-Chloro-3,5-dimethoxy-6-methyl-phenyl)-N6-[5-(2-morpholin-4-yl-ethyl)-pyridin-2-yl]-[4,5′]bipyrimidinyl-6,4′-diamine], the 50% growth inhibitory concentration (GI50) fell in the range of 250 to 500 nM. Consider `COc1cc(OC)c(Cl)c(Nc2nccnc2-c2cc(Nc3ccc(CN4CCN(C(=O)CO)CC4)cn3)ncn2)c1Cl` [Compound 101], for which the concentration for 50% growth inhibition (GI50) was < 100 nM.

On to `COC(=O)c1cc(OC)c(Cl)c(Nc2ncncc2-c2cc(N)ncn2)c1Cl` [Compound 23, 3-(6-Amino-[4,5′]bipyrimidinyl-4′-ylamino)-2,4-dichloro-5-methoxy-benzoic acid methyl ester], for which the GI50 is 250 to 500 nM. The same measure, in the same setting: the result for `COc1cc(OC)c(Cl)c(Nc2ncncc2-c2cc(Nc3ccc(CN(C)C)cn3)ncn2)c1Cl` [Compound 7, N4′-(2,6-Dichloro-3,5-dimethoxy-phenyl)-N6-(5-dimethylaminomethyl-pyridin-2-yl)-[4,5′]bipyrimidinyl-6,4′-diamine] reads < 100 nM.

Staying with this assay, now noted: 48 hours incubation, given as bound.
On to `COc1ccc(F)c(Nc2nccnc2-c2cc(N)ncn2)c1F` [Compound 103, {6-[3-(2,6-Difluoro-3-methoxy-phenylamino)-pyrazin-2-yl]-pyrimidin-4-yl}-amine], for which the GI50 was > 500 nM.
